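Results reflect a 48-hour exposure of cells in 96-well plates to compound at five concentrations. At the GI50, growth is halved.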 Activity calls are given as the source filed them. Rule as the data show it: active = GI50 up to about 1.1 µM and inactive = higher.
Experiments:
Assay in all cases: inhibition of tumour cell growth, NCI panel, 48 h
OVCAR-8 = test system: OVCAR-8
LOX IMVI = test system: LOX IMVI
SNB-19 = test system: SNB-19
SF-268 = test system: SF-268
TK-10 = test system: TK-10
HOP-62 = test system: HOP-62
M14 = test system: M14
OVCAR-4 = test system: OVCAR-4
NCI-H460 = test system: NCI-H460
SK-MEL-28 = test system: SK-MEL-28
SK-MEL-2 = test system: SK-MEL-2
A498 = test system: A498
RPMI-8226 = test system: RPMI-8226
HCT-116 = test system: HCT-116
U-251 = test system: U-251
UO-31 = test system: UO-31
SK-OV-3 = test system: SK-OV-3
Malme-3M = test system: Malme-3M
Hs-578T = test system: Hs-578T

Measured: GI50

CC1=C(Oc2ccccc2)C(CCC(=O)O)c2c(O)cc(Cl)c(O)c21 (centres undefined)
inactive: OVCAR-8 > 100 µM | LOX IMVI > 100 µM | SNB-19 > 100 µM | SF-268 > 100 µM | TK-10 > 100 µM | HOP-62 > 100 µM | M14 > 100 µM | OVCAR-4 > 100 µM | NCI-H460 > 100 µM | SK-MEL-28 > 100 µM | SK-MEL-2 > 100 µM | A498 > 100 µM | RPMI-8226 > 100 µM | HCT-116 > 100 µM | U-251 > 100 µM | UO-31 > 100 µM

CCCc1onc(CCC(=O)N(Cc2ccccc2)Cc2ccccc2)c1CC
inactive: SK-OV-3 > 100 µM | LOX IMVI > 100 µM | SF-268 > 100 µM | HOP-62 > 100 µM | M14 > 100 µM | OVCAR-4 > 100 µM | NCI-H460 > 100 µM | Malme-3M > 100 µM | SK-MEL-2 > 100 µM | A498 > 100 µM | RPMI-8226 > 100 µM | U-251 > 100 µM

CCCCN(CCCC)C1=Nc2ccccc2-n2c(nnc2C(=O)OCC)C1
inactive: SK-OV-3 68.4 µM | OVCAR-8 69.3 µM | LOX IMVI 38.8 µM | Hs-578T > 100 µM | SNB-19 91.2 µM | SF-268 50.9 µM | TK-10 38.7 µM | HOP-62 95.1 µM | M14 44.3 µM | OVCAR-4 61.8 µM | NCI-H460 22.7 µM | SK-MEL-28 82.2 µM | Malme-3M 24.6 µM | RPMI-8226 26.1 µM | HCT-116 27.4 µM | UO-31 31.8 µM

C=C1CCCC(C)(C)[C@@H]1CC/C(C)=C/Cn1c2cccc(=O)c-2nc2ccccc21
inactive: SK-OV-3 4.15 µM | OVCAR-8 1.55 µM | LOX IMVI 1.15 µM | SNB-19 4.51 µM | SF-268 1.39 µM | HOP-62 3.48 µM | OVCAR-4 1.81 µM | NCI-H460 1.21 µM | SK-MEL-28 4.63 µM | SK-MEL-2 2.37 µM | A498 3.52 µM | RPMI-8226 2.04 µM | HCT-116 1.35 µM | U-251 1.53 µM | UO-31 2.77 µM

Nc1ncnc2c1ncn2COC/C=C/I
inactive: SK-OV-3 > 100 µM | OVCAR-8 > 100 µM | LOX IMVI > 100 µM | SNB-19 > 100 µM | SF-268 > 100 µM | TK-10 > 100 µM | HOP-62 > 100 µM | M14 > 100 µM | OVCAR-4 > 100 µM | NCI-H460 > 100 µM | SK-MEL-28 > 100 µM | Malme-3M > 100 µM | SK-MEL-2 > 100 µM | A498 > 100 µM | RPMI-8226 > 100 µM | HCT-116 > 100 µM | U-251 > 100 µM | UO-31 > 100 µM

Cc1cc(C)nc(NS(=O)(=O)c2ccc(Nc3c4ccccc4nc4c(C(=O)N5CCN(CCOS(C)(=O)=O)CC5)ccc(Cl)c34)cc2)n1
inactive: SK-OV-3 > 100 µM | OVCAR-8 > 100 µM | SNB-19 > 100 µM | SF-268 > 100 µM | TK-10 54.1 µM | HOP-62 > 100 µM | M14 38 µM | OVCAR-4 > 100 µM | NCI-H460 > 100 µM | SK-MEL-28 > 100 µM | Malme-3M > 100 µM | SK-MEL-2 > 100 µM | A498 > 100 µM | RPMI-8226 > 100 µM | HCT-116 > 100 µM | U-251 > 100 µM | UO-31 > 100 µM

CCN(CC)CCSc1nc2cccc([N+](=O)[O-])c2[nH]1
inactive: SK-OV-3 > 100 µM | OVCAR-8 > 100 µM | LOX IMVI > 100 µM | TK-10 > 100 µM | M14 > 100 µM | OVCAR-4 > 100 µM | SK-MEL-28 > 100 µM | RPMI-8226 > 100 µM

Cn1c(=O)nc2n(-c3ccc(F)cc3)c3ccccc3nc-2c1=O
inactive: SK-OV-3 > 100 µM | OVCAR-8 20.5 µM | SNB-19 13.9 µM | SF-268 28.2 µM | TK-10 26.5 µM | HOP-62 46.7 µM | M14 13.9 µM | OVCAR-4 14.4 µM | NCI-H460 18.2 µM | Malme-3M 10.5 µM | SK-MEL-2 19 µM | A498 32.6 µM | RPMI-8226 25.2 µM | HCT-116 17.5 µM | U-251 21.5 µM | UO-31 38.4 µM

Cc1cc(N(CCC#N)CCC#N)ccc1/C=C(\NC(=O)/C=C/c1ccccc1)NC(=O)Nc1ccccc1C
inactive: OVCAR-8 30.2 µM | LOX IMVI 63.4 µM | SNB-19 32.7 µM | SF-268 24.7 µM | M14 > 100 µM | OVCAR-4 26.8 µM | NCI-H460 76.2 µM | SK-MEL-28 > 100 µM | Malme-3M > 100 µM | SK-MEL-2 38.7 µM | A498 65.3 µM | RPMI-8226 > 100 µM | HCT-116 > 100 µM | U-251 17.1 µM | UO-31 > 100 µM

O=C1C(Cl)N(c2c(Cl)cccc2Cl)C1c1c[nH]c2ccccc12 (centres undefined)
inactive: SK-OV-3 > 100 µM | OVCAR-8 > 100 µM | SNB-19 > 100 µM | SF-268 > 100 µM | TK-10 > 100 µM | HOP-62 > 100 µM | M14 > 100 µM | OVCAR-4 > 100 µM | NCI-H460 > 100 µM | SK-MEL-28 > 100 µM | Malme-3M 36.3 µM | SK-MEL-2 > 100 µM | RPMI-8226 > 100 µM | HCT-116 > 100 µM | U-251 > 100 µM | UO-31 > 100 µM

O=C(O)CCC(=O)N1c2ccccc2CC1c1c[nH]c2ccccc12 (centres undefined)
inactive: SK-OV-3 > 100 µM | OVCAR-8 > 100 µM | LOX IMVI > 100 µM | SNB-19 > 100 µM | SF-268 > 100 µM | TK-10 > 100 µM | HOP-62 > 100 µM | M14 > 100 µM | OVCAR-4 > 100 µM | NCI-H460 > 100 µM | SK-MEL-28 > 100 µM | Malme-3M > 100 µM | SK-MEL-2 > 100 µM | A498 > 100 µM | RPMI-8226 > 100 µM | HCT-116 > 100 µM | U-251 > 100 µM | UO-31 33.2 µM

COc1cc(CCc2ccc(OCCN(C)C)cc2)cc(OC)c1OC
inactive: OVCAR-8 > 100 µM | LOX IMVI 34.8 µM | SNB-19 > 100 µM | SF-268 > 100 µM | TK-10 78.9 µM | HOP-62 84.1 µM | M14 68.4 µM | OVCAR-4 > 100 µM | NCI-H460 > 100 µM | SK-MEL-28 > 100 µM | Malme-3M 93.3 µM | A498 76 µM | RPMI-8226 28.6 µM | HCT-116 60.4 µM | U-251 > 100 µM | UO-31 49.9 µM

CCCCCCCCCCCC1CCCC(C)N1 (centres undefined)
inactive: SK-OV-3 75.2 µM | OVCAR-8 80 µM | LOX IMVI 18.2 µM | SNB-19 76.2 µM | SF-268 67.9 µM | HOP-62 43.3 µM | OVCAR-4 61.2 µM | NCI-H460 45.1 µM | SK-MEL-28 76.6 µM | Malme-3M 90.4 µM | SK-MEL-2 72.1 µM | A498 51.5 µM | RPMI-8226 23.2 µM | HCT-116 36.8 µM | U-251 59.3 µM | UO-31 41 µM
